The target of test [1] is Human immunodeficiency virus type 1 protease (Human immunodeficiency virus 1, UniProt Q72874). The test is described as follows: Inhibition of HIV1 NL4-3 protease expressed in Escherichia coli TAP-106 cells using EDANS/DABCYL-labelled 10-amino acid containing protease cleavage site as substrate preincubated for 1 hr followed by substrate addition and measured for 60 mins by FRET assay.

Test [2] concerns the target Protease (Human immunodeficiency virus 1, UniProt Q9YQ12, I84V). Kind of test: Inhibition of HIV1 NL4-3 protease I84V mutant expressed in Escherichia coli TAP-106 cells using EDANS/DABCYL-labelled 10-amino acid containing protease cleavage site as substrate preincubated for 1 hr followed by substrate addition and measured for 60 mins by FRET assay.
Test [3] concerns Human immunodeficiency virus 1. Kind of test: Antiviral activity against wild-type HIV1 NL4-3 infected in human TZM-bl cells infected with supernatants from virus-infected human 293T cells treated with compound for 18 hrs assessed as reduction in viral replication by luciferase assay. The following applies: Human immunodeficiency virus 1, NL4-3, 18 h. Format: functional, organism-based.

The target of test [4] is Protease (Human immunodeficiency virus 1, UniProt Q9YQ12, A71V/I50V). The test is described as follows: Inhibition of HIV1 NL4-3 protease I50V/A71V mutant expressed in Escherichia coli TAP-106 cells using EDANS/DABCYL-labelled 10-amino acid containing protease cleavage site as substrate preincubated for 1 hr followed by substrate addition and measured for 60 mins by FRET assay.
Sequence of Protease (Human immunodeficiency virus 1, UniProt Q9YQ12, A71V/I50V) (Q9YQ12 entry or part of it A71V/I50V): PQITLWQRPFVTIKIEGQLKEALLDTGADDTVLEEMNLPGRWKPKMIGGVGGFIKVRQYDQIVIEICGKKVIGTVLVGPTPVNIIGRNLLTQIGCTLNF

Sequence of Protease (Human immunodeficiency virus 1, UniProt Q9YQ12, I84V) (Q9YQ12 entry or part of it I84V): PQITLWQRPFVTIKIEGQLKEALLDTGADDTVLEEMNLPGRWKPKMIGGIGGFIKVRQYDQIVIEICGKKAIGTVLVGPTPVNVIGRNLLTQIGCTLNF

Consider `COC(=O)N[C@H](C(=O)N[C@@H](Cc1ccccc1)[C@@H](O)C[C@H](Cc1ccccc1)NC(=O)O[C@H]1CO[C@H]2OCC[C@H]21)C(C)(C)C`, for which the Ki in test [1] is 0.018 nM; on Protease [2], 0.208 nM; at Protease [4], 0.273 nM. Also, the 50% effective concentration (EC50) in test [3] was determined as 11 nM.
For `COC(=O)N[C@H](C(=O)N[C@@H](Cc1ccccc1)[C@@H](O)C[C@H](Cc1ccccc1)NC(=O)O[C@H]1CO[C@H]2OCC[C@H]21)C(C)C` the same measures were 0.074 nM, 0.302 nM, 0.295 nM and 55 nM.
Regarding `COC(=O)N[C@H](C(=O)N[C@@H](Cc1ccccc1)C[C@H](O)[C@H](Cc1ccccc1)NC(=O)O[C@H]1CO[C@H]2OCC[C@H]21)C(C)(C)C`, the Ki turned out to be 0.013 nM in test [1], 0.372 nM at Protease [2] and 0.072 nM at Protease [4]. Besides, the EC50 in test [3] is 39 nM.
Taken in the same sequence, the figures for `CC[C@@H](C)[C@H](NC(=O)OC)C(=O)N[C@@H](Cc1ccccc1)[C@@H](O)C[C@H](Cc1ccccc1)NC(=O)O[C@H]1CO[C@H]2OCC[C@H]21` were 0.027 nM, 0.091 nM, 0.029 nM and 240 nM.
For `Cc1cccc(C)c1OCC(=O)N[C@@H](Cc1ccccc1)[C@@H](O)C[C@H](Cc1ccccc1)NC(=O)O[C@H]1CO[C@H]2OCC[C@H]21` the same measures were 0.017 nM, 0.069 nM, 0.072 nM and 38 nM.
With `COC(=O)N[C@H](C(=O)N[C@@H](Cc1ccccc1)C[C@H](O)[C@H](Cc1ccccc1)NC(=O)O[C@H]1CO[C@H]2OCC[C@H]21)C1CCCC1`, the figures for the inhibition constant Ki (in test [1]; on Protease [2]; on Protease [4]) were 0.161 nM, 1.18 nM and 1.39 nM, respectively.
`COC(=O)N[C@@H](C)C(=O)N[C@@H](Cc1ccccc1)[C@@H](O)C[C@H](Cc1ccccc1)NC(=O)O[C@H]1CO[C@H]2OCC[C@H]21`: the Ki in test [1] is 0.019 nM; on Protease [2] it was 0.069 nM; at Protease [4], 0.073 nM. For the same compound, in test [3], the half-maximal effective concentration (EC50) is 66 nM.
Take `COC(=O)NC1(C(=O)N[C@@H](Cc2ccccc2)[C@@H](O)C[C@H](Cc2ccccc2)NC(=O)O[C@H]2CO[C@H]3OCC[C@H]32)CCCC1`: the Ki worked out at 46 nM in test [1], 236 nM on Protease [2] and 484 nM at Protease [4].
For `COC(=O)N[C@H](C(=O)N[C@@H](Cc1ccccc1)[C@@H](O)C[C@H](Cc1ccccc1)NC(=O)O[C@H]1CO[C@H]2OCC[C@H]21)C1CC1` the same measures were 0.571 nM, 1.82 nM and 1.66 nM.
Consider `Cc1cccc(C)c1OCC(=O)N[C@@H](Cc1ccccc1)C[C@H](O)[C@H](Cc1ccccc1)NC(=O)O[C@H]1CO[C@H]2OCC[C@H]21`, for which the inhibition constant Ki in test [1] turned out to be 0.037 nM; at Protease [2], 0.259 nM. Besides, in test [3], the EC50 turned out to be 16 nM.
Turning to `COC(=O)NC1(C(=O)N[C@@H](Cc2ccccc2)C[C@H](O)[C@H](Cc2ccccc2)NC(=O)O[C@H]2CO[C@H]3OCC[C@H]32)CCCC1`, the inhibition constant (Ki) is 7.3 nM in test [1], 191 nM at Protease [2] and 40 nM on Protease [4].
As to `CC[C@H](C)[C@H](NC(=O)OC)C(=O)N[C@@H](Cc1ccccc1)[C@@H](O)C[C@H](Cc1ccccc1)NC(=O)O[C@H]1CO[C@H]2OCC[C@H]21`, the results for the inhibition constant (Ki) (in test [1]; on Protease [2]; at Protease [4]) were 0.055 nM, 0.198 nM and 0.56 nM, respectively. In addition, the EC50 in test [3] came to 70 nM.
As to `COC(=O)N[C@H](C(=O)N[C@@H](Cc1ccccc1)[C@@H](O)C[C@H](Cc1ccccc1)NC(=O)O[C@H]1CO[C@H]2OCC[C@H]21)C1CCCC1`, the Ki in test [1] is 0.235 nM; at Protease [2], 0.71 nM; at Protease [4], 2.35 nM.
As to `Cc1cccc(C)c1OCC(=O)N[C@@H](Cc1ccccc1)[C@@H](O)C[C@H](Cc1ccccc1)NC(=O)[C@H](C(C)C)N1CCCNC1=O` [LOPINAVIR], in test [3], the EC50 turned out to be 12 nM.

Values taken from ChEMBL document CHEMBL4627412.
